Source: patent US7838674B2, “Tetracyclic lactame derivatives” (Novartis AG, priority 2007, dated 2010)
Where a name gives a salt, the structure may show the parent alone.

Molecular target: T1, MAPKAPK2 enzyme (HIS-MK2, Invitrogen PV4019) (Homo sapiens, UniProt P49137)
T1 construct: His; purchased Invitrogen PV4019
Experiment: Alternative MAPKAPK2 assay (Caliper microfluidic mobility shift, HSP27-peptide)
Assay type: biochemical
Details: HIS-MK2 0.013 nM, ATP 10 μM, 60 min at 30° C.

T1 sequence (P49137 whole entry): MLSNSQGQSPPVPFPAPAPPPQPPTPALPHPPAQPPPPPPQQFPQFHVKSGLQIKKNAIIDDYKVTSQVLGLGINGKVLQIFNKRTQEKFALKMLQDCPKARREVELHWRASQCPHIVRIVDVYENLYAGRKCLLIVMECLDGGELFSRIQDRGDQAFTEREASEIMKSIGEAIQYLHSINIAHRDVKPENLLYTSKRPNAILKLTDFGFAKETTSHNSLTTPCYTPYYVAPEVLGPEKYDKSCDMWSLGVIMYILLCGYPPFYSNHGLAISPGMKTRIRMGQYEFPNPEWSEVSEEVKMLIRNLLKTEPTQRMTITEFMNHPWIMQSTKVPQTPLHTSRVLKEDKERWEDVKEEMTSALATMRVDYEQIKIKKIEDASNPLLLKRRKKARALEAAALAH

In the case of `Cn1c2c(c3c1C1(CNC1)CNC3=O)CCc1cnc(-c3cccc(F)c3)nc1-2` [Example 203, 2-(3-Aminomethyl-azetidin-3-yl)-8-(3-fluoro-phenyl)-1-methyl-4,5-dihydro-1H-1,7,9-triaza-cyclopenta[a]naphthalene-3-carboxylic acid lactam hydrochloride], the IC50 is reported as 34 nM.
Work on `O=C1NC2(CC2)C2(CC2)c2[nH]c3c(c21)CCc1cnc(-c2ccc(OCCN4CCOCC4)cc2)cc1-3` [Example 230, 2-(1′-Amino-bicyclopropyl-1-yl)-8-[4-(2-morpholin-4-yl-ethoxy)-phenyl]-4,5-dihydro-1H-pyrrolo[2,3-f]isoquinoline-3-carboxylic acid lactam] yielded an IC50 of 36 nM.
In the case of `CN1CCN(c2ccc(-c3cc4c(cn3)CCc3c-4[nH]c4c3C(=O)NC3(CC3)C4)cc2C#N)CC1` [Example 321, 2-(4-Methyl-piperazin-1-yl)-9-spirocyclopropyl-5-(7-oxo-6,7,8,9,10,11-hexahydro-5H-3,8,11-triaza-benzo[a]fluoren-2-yl)-benzonitrile], the IC50 is reported as 9 nM.
Compound `C#Cc1cc(-c2cc3c(cn2)CCc2c-3[nH]c3c2C(=O)NC2(CC2)C3)ccc1OC` [Example 75, 2-(1-Amino-cyclopropylmethyl)-8-(3-ethynyl-4-methoxy-phenyl)-4,5-dihydro-1H-pyrrolo[2,3-f]isoquinoline-3-carboxylic acid lactam] has an IC50 of 98 nM.
Compound `Cn1c2c(c3c1-c1cc(-c4cncc(-c5ccc(F)cc5)c4)ncc1CC3)C(=O)NC1(CNC1)C2` [Example 136, 2-(3-Amino-azetidin-3-ylmethyl)-8-[5-(4-fluoro-phenyl)-pyridin-3-yl]-1-methyl-4,5-dihydro-1H-pyrrolo[2,3-f]isoquinoline-3-carboxylic acid lactam hydrochloride] has an IC50 of 23 nM.
`CCN1CC2(C1)c1[nH]c3c(c1C(=O)NC21CC1)CCc1cnc(-c2ccc(OC(C)C)nc2)cc1-3` [Example 250] gave an IC50 of less than 3 nM.
Compound `COc1ncc(-c2cc3c(cn2)CCc2c-3[nH]c3c2C(=O)NC2(CC2)C3)s1` [Example 283, 2-(1-Amino-cyclopropylmethyl)-8-(2-methoxy-5-thiazolyl)-4,5-dihydro-1H-pyrrolo[2,3-f]isoquinoline-3-carboxylic acid lactam] has an IC50 of 98 nM.
In the case of `Cn1c2c(c3c1-c1nc(-c4cccc(Br)c4)ncc1CC3)C(=O)NC1(CNC1)C2` [Example 286, 2-(3-Amino-azetidin-3-ylmethyl)-8-(3-bromo-phenyl)-1-methyl-4,5-dihydro-1H-1,7,9-triaza-cyclopenta[a]naphthalene-3-carboxylic acid lactam hydrochloride], the IC50 is reported as 48 nM.
With `CC(C)Oc1ccc(-c2cc3c(cn2)CCc2c-3[nH]c3c2C(=O)NC2(CC2)C3)cn1` [Example 235, 2-(1-Amino-cyclopropylmethyl)-8-(6-isopropoxy-pyridin-3-yl)-4,5-dihydro-1H-pyrrolo[2,3-f]isoquinoline-3-carboxylic acid lactam] the IC50 was 65 nM.
With `CCN1CC2(CNC(=O)c3c2[nH]c2c3CCc3cnc(-c4cccc(C(=O)NCc5ccccc5)c4)cc3-2)C1` [Example 263, 2-(3-Aminomethyl-1-ethyl-azetidin-3-yl)-8-(3-benzylcarbamoyl-phenyl)-4,5-dihydro-1H-pyrrolo[2,3-f]isoquinoline-3-carboxylic acid lactam] the IC50 was less than 3 nM.
`O=C1NCC2(CNC2)c2[nH]c3c(c21)CCc1cnc(-c2ccc(F)nc2)cc1-3` [Example 160, 2-(3-Aminomethyl-azetidin-3-yl)-8-(6-fluoro-pyridin-3-yl)-4,5-dihydro-1H-pyrrolo[2,3-f]isoquinoline-3-carboxylic acid lactam hydrochloride] gave an IC50 of less than 3 nM.
`O=C1NC2(CC2)Cc2[nH]c3c(c21)CCc1cnc(-c2ccc(N4CCOCC4)nc2)cc1-3` [Example 236, 2-(1-Amino-cyclopropylmethyl)-8-(6-morpholin-4-yl-pyridin-3-yl)-4,5-dihydro-1H-pyrrolo[2,3-f]isoquinoline-3-carboxylic acid lactam] gave an IC50 of 22 nM.
`Nc1ccc(-c2cc3c(cn2)CCc2c-3[nH]c3c2C(=O)NC2(CCC2)C3)cn1` [Example 101, 2-(1-Amino-cyclobutylmethyl)-8-(6-amino-pyridin-3-yl)-4,5-dihydro-1H-pyrrolo[2,3-f]isoquinoline-3-carboxylic acid lactam] was tested, and the IC50 was 98 nM.
In the case of `O=C1NCC2(CNC2)c2[nH]c3c(c21)CCc1cnc(-c2ccc(Oc4ccc(F)cc4F)nc2)cc1-3` [Example 154, 2-(3-Aminomethyl-azetidin-3-yl)-8-[6-(2,4-difluoro-phenoxy)-pyridin-3-yl]-4,5-dihydro-1H-pyrrolo[2,3-f]isoquinoline-3-carboxylic acid lactam], the IC50 is reported as less than 3 nM.
Compound `CC(C)Oc1ccc(-c2cc3c(cn2)CCc2c-3[nH]c3c2C(=O)NCC32CNC2)cn1` [Example 186, 2-(3-Aminomethyl-azetidin-3-yl)-8-(6-isopropoxy-pyridin-3-yl)-4,5-dihydro-1H-pyrrolo[2,3-f]isoquinoline-3-carboxylic acid lactam hydrochloride] has an IC50 of less than 3 nM.
For `O=C1NC2(CC2)Cc2[nH]c3c(c21)CCc1cnc(-c2ccc(CCCN4CCOCC4)cc2)cc1-3` [Example 246, 2-(1-Amino-cyclopropylmethyl)-8-[4-(3-morpholin-4-yl-propyl)-phenyl]-4,5-dihydro-1H-pyrrolo[2,3-f]isoquinoline-3-carboxylic acid lactam], the IC50 was 100 nM.
`Cn1c2c(c3c1-c1cc(-c4cccc(N5CCOCC5)c4)ncc1CC3)C(=O)NC1(CNC1)C2` [Example 146, 2-(3-Amino-azetidin-3-ylmethyl)-8-(3-morpholin-4-yl-phenyl)-1-methyl-4,5-dihydro-1H-pyrrolo[2,3-f]isoquinoline-3-carboxylic acid lactam hydrochloride] gave an IC50 of 45 nM.
For `O=C1NCC2(CC2)c2[nH]c3c(c21)CCc1cnc(-c2ccc4c(c2)OCCO4)cc1-3` [Example 114], the IC50 was 41 nM.
`Cc1ccc(-c2cc3c(cn2)CCc2c-3[nH]c3c2C(=O)NCC32CC2)cn1` [Example 111, 2-(1-Aminomethyl-cyclopropyl)-8-(6-methyl-pyridin-3-yl)-4,5-dihydro-1H-pyrrolo[2,3-f]isoquinoline-3-carboxylic acid lactam] gave an IC50 of 5 nM.
`CN1CC2(C1)c1[nH]c3c(c1C(=O)NC21CC1)CCc1cnc(-c2ccc(CCCN4CCOCC4)cc2)cc1-3` [Example 260, 2-[3-(1-Amino-cyclopropyl)-1-methyl-azetidin-3-yl]-8-[4-(3-morpholin-4-yl-propyl)-phenyl]-4,5-dihydro-1H-pyrrolo[2,3-f]isoquinoline-3-carboxylic acid lactam] gave an IC50 of less than 3 nM.
Work on `COc1ccc(-c2cc3c(cn2)CCc2c-3[nH]c3c2C(=O)NC2(CC2)C3)cc1F` [Example 238, 2-(1-Amino-cyclopropylmethyl)-8-(3-fluoro-4-methoxy-phenyl)-4,5-dihydro-1H-pyrrolo[2,3-f]isoquinoline-3-carboxylic acid lactam] yielded an IC50 of 68 nM.
`CN1CC2(CNC(=O)c3c4c(n(C)c32)-c2cc(-c3ccc(F)nc3)ncc2CC4)C1` [Example 161, 2-(3-Aminomethyl-1-methyl-azetidin-3-yl)-8-(6-fluoro-pyridin-3-yl)-1-methyl-4,5-dihydro-1H-pyrrolo[2,3-f]isoquinoline-3-carboxylic acid lactam] gave an IC50 of 86 nM.
